Test [1] deals with LTD4 evoked ileal contractions (guinea pig ileum). The test is described as follows: Inhibition of LTD4 evoked contractions in isolated ileum (single submaximal LTD4 response, five minute drug exposure). The test is classed as cell-based, Male, Hartley guinea pigs. Conditions: Cavia porcellus, read-out: Percent inhibition of LTD4 evoked ileal contractions; for inhibition at 1 µM: Compound concentration 1 × 10^-6 M; for inhibition at 3 µM: Compound concentration 3 × 10^-6 M; for inhibition at 0.1 µM: Compound concentration 1 × 10^-7 M; for inhibition at 0.3 µM: Compound concentration 3 × 10^-7 M. Here is the method: (§1) A section of terminal ileum was removed, the lumen cleaned, and the tissue divided into 2.5 cm. segments. The ilea were mounted in 10 ml. tissue baths containing Krebs-bicarbonate solution of the following composition in mmoles/ liter: KCl, 4.6; CaCl2 ·2H2 O, 1.2; KH2 PO4, 1.2; MgSO4 ·7H2 O, 1.2; NaCl, 118.2; NaHCO3, 24.8; and dextrose, 10.0. The bath fluid was maintained at 37° C. and aerated with 95 percent oxygen and 5 percent CO2. In addition, the buffer contained 1×10^- 6M atropine to reduce ileal spontaneous activity. Isometric measurements were made with a Grass FTO3C force-displacement transducer and recorded on a Grass polygraph as change in grams of force. A passive force of 0.5 g. was applied to the tissues. After an appropriate equilibration period, single submaximal control responses to pure LTD4 were obtained. Following a five minute exposure of the ileum to an experimental drug, the control concentration of LTD4 was added to the tissue bath. The response of the ileum to LTD4 in the presence of the drug was compared to the response in the absence of the drug. For some of the drugs in this series a more detailed analysis of LTD4 antagonism was made. In these experiments, cumulative concentration-response curves were obtained to LTD4 in guinea pig ileum and trachea. This was followed by a 30 minute incubation with various concentrations of the experimental drug. The concentration response curve to LTD4 was then repeated in the presence of the antagonist. Only one concentration of antagonist was used on a single tissue. KB values were calculated by the method of Furchgott [Ann. N.Y. Acad. Sci., 139, 553 (1967)]using the following equation. [formula]

The target of test [2] is T1, LTD4 (guinea pig ileum and trachea) (Cavia porcellus, UniProt Q2NNR5).
T1 construct: A section of terminal ileum was removed, the lumen cleaned, and the tissue divided into 2.5 cm. segments; from tissue; host or cells: isolated ileum and trachea of guinea pig (ileum: male Hartley, terminal ileum)
T1 sequence (Q2NNR5 1-340): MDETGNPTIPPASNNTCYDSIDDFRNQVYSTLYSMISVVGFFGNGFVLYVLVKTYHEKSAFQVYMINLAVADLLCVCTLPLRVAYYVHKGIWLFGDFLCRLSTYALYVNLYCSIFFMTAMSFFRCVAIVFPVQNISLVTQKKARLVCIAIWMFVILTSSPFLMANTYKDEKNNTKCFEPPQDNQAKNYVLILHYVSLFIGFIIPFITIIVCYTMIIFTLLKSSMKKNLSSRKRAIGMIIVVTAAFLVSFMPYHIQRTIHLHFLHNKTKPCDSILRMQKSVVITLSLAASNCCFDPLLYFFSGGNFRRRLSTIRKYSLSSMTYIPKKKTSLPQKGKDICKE
The test is described as follows: LTD4 antagonism, cumulative concentration-response curves to LTD4 (KB / pA2, Schild). The test is classed as cell-based. Conditions: negative log of KB, 30 minute incubation. As to the method: as §1, with “Male, Hartley guinea pigs weighing 200-450 grams were killed by decapitation. A section” for “A section”
Dose ratio refers to the concentration of agonist required to elicit 50 percent of the maximal response (ED50) in the presence of the antagonist divided by the ED50 in the absence of the antagonist. Calculations were performed with the aid of a computer and a digital plotter.

The text below walks through data of patent US4764521A, “Leukotriene antagonists and a method of use there as” (Eli Lilly and Company, priority 1986, dated 1988).

The structures appear in SMILES notation.

As for `CCCc1c(OCCCCCC(=O)O)ccc(Cl)c1Cl` [Example 1, 6-(2-Propyl-3,4-dichlorophenoxy)hexanoic acid], in test [1], the inhibition (as a rule, the percentage by which the read-out fell short of the control) at 1 µM worked out at 51% and the inhibition at 3 µM amounted to 78%.

As for `CCCc1c(OCCCCc2nnn[nH]2)ccc(Cl)c1Cl` [Example 2, 5-[4-(2-Propyl-3,4-dichlorophenoxy)butyl]-tetrazole], in test [1], the inhibition at 1 µM stood at 94%, the inhibition at 0.1 µM stood at 56% and the inhibition at 0.3 µM came out at 70%. Besides, the Kb (in general, the affinity of an antagonist, worked out from how it opposes an agonist) in test [2] is 100 nM.

For the compound `CCCc1c(OCCCCCc2nnn[nH]2)ccc(Cl)c1Cl` [Example 3, 5-[5-(2-Propyl-3,4-dichlorophenoxy)pentyl]-tetrazole], in test [1], the inhibition at 1 µM turned out to be 75%, the inhibition at 3 µM was 92% and the inhibition at 0.3 µM came out at 51%. Also, the antagonist equilibrium constant (Kb) in test [2] (*estimated) was 251 nM.

On to `CCCc1c(OCCCCCCc2nn[nH]n2)ccc(Cl)c1Cl` [Example 4, 5-[6-(2-Propyl-3,4-dichlorophenoxy)hexyl]-tetrazole], for which, in test [1], the inhibition at 1 µM came out at 84% and the inhibition at 3 µM is 96%. Besides, the pA2 – broadly, a measure of antagonist potency on a negative log scale – in test [2] (*estimated) is on record as 7.0.

On to `CCCc1c(OCCCCc2nnn[nH]2)ccc(C(C)=O)c1Cl` [Example 5, 5-[4-(2-Propyl-3-chloro-4-acetylphenoxy)butyl]-tetrazole], for which, in test [1], the inhibition at 0.1 µM is 49% and the inhibition at 0.3 µM came to 73%. Also, the Kb in test [2] (*estimated) is 105 nM.

Consider `CCCCCCCCc1c(OCCCCCCc2nnn[nH]2)ccc(Cl)c1Cl` [Example 6, 5-[6-(2-Octyl-3,4-dichlorophenoxy)hexyl]-tetrazole], for which, in test [1], the inhibition at 1 µM amounted to 53% and the inhibition at 3 µM was determined as 59%.

Take `CCCCCCCCCCCCc1c(OCCCCCc2nnn[nH]2)ccc(Cl)c1Cl` [Example 7, 5-[5-(2-Dodecyl-3,4-dichlorophenoxy)pentyl]tetrazole]: the inhibition at 3 µM in test [1] was 16%.

Take `CCCc1c(OCCCSc2nn[nH]n2)ccc(Cl)c1Cl` [Example 8, 5-[3-(2-Propyl1-3,4-dichlorophenoxy)propanethio]-tetrazole]: in test [1], the inhibition at 0.1 µM was 59% and the inhibition at 0.3 µM worked out at 79%.

For `CCCCCc1c(OCCCCCC(=O)O)ccc(Cl)c1Cl` [Example 9, 6-(2-Pentyl-3,4-dichlorophenoxy)hexanoic acid], in test [1], the inhibition at 1 µM is 21% and the inhibition at 3 µM was 57%.

For the compound `O=C(O)CCCCCOc1ccc(Cl)c(Cl)c1CCO` [Example 10, 6-[2-(2-Hydroxyethyl)-3,4-dichlorophenoxy]hexanoic acid], the inhibition at 3 µM in test [1] was 22%.

As for `CCCc1c(OCCCCc2nnn[nH]2)ccc(Cl)c1O` [Example 11, 5-[4-(2-Propyl-3-hydroxy-4-chlorophenoxy)butyl]-tetrazole], the inhibition at 3 µM in test [1] was determined as 20%. For the same compound, in test [2] (*estimated), the Kb is 3160 nM.

Take `CCCc1c(OCCCCCCC(=O)O)ccc(Cl)c1Cl` [Example 12, 7-(2-Propyl-3,4-dichlorophenoxy)heptanoic acid]: in test [1], the inhibition at 3 µM turned out to be 31%.
